Experimental data taken from patent publication US9828360B2 (Array BioPharma Inc., priority 2012, dated 2017).

Legend:
Assay in all cases: KinaseProfiler off-target kinase profiling
Assay type in all cases: biochemical
Conditions in all cases: 10 μM, ATP near Km
CHK2 = molecular target: T1, CHK2 (Homo sapiens, UniProt O96017)
T1 construct: purchased Millipore, Inc. (KinaseProfiler service)
Procedure, shortened: (§1)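 Read-out: percent of control, mean of duplicate wells. Compound at 10 μM; ATP set close to each kinase's Km.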

PKCdelta = molecular target: T2, PKCdelta (Homo sapiens, UniProt Q05655)
T2 construct: purchased Millipore, Inc. (KinaseProfiler service)
Procedure, shortened: as §1

EphA4 = molecular target: T3, EphA4 (Homo sapiens, UniProt P54764)
T3 construct: purchased Millipore, Inc. (KinaseProfiler service)
Procedure, shortened: as §1

ULK3 = molecular target: T4, ULK3 (Homo sapiens, UniProt Q6PHR2)
T4 construct: purchased Millipore, Inc. (KinaseProfiler service)
Procedure, shortened: as §1

CLK2 = molecular target: T5, CLK2 (Homo sapiens, UniProt P49760)
T5 construct: purchased Millipore, Inc. (KinaseProfiler service)
Procedure, shortened: as §1

AMPK (A1/B1/G1) = molecular target: T6, AMPK (A1/B1/G1) (Homo sapiens, UniProt Q13131)
T6 construct: purchased Millipore, Inc. (KinaseProfiler service)
Procedure, shortened: as §1

CK2alpha2 = molecular target: T7, CK2alpha2 (Homo sapiens, UniProt P19784)
T7 construct: purchased Millipore, Inc. (KinaseProfiler service)
Procedure, shortened: as §1

PKCbetaI = molecular target: T8, PKCbetaI (Homo sapiens, UniProt P05771)
T8 construct: purchased Millipore, Inc. (KinaseProfiler service)
Procedure, shortened: as §1

Fms = molecular target: T9, Fms (Homo sapiens, UniProt P07333)
T9 construct: purchased Millipore, Inc. (KinaseProfiler service)
Procedure, shortened: as §1

ZAP-70 = molecular target: T10, ZAP-70 (Homo sapiens, UniProt P43403)
T10 construct: purchased Millipore, Inc. (KinaseProfiler service)
Procedure, shortened: as §1

BrSK2 = molecular target: T11, BrSK2 (Homo sapiens, UniProt Q8IWQ3)
T11 construct: purchased Millipore, Inc. (KinaseProfiler service)
Procedure, shortened: as §1

CAMK2b = molecular target: T12, CAMK2b (Homo sapiens, UniProt Q13554)
T12 construct: purchased Millipore, Inc. (KinaseProfiler service)
Procedure, shortened: as §1

MAPKAP-K3 = molecular target: T13, MAPKAP-K3 (Homo sapiens, UniProt Q16644)
T13 construct: purchased Millipore, Inc. (KinaseProfiler service)
Procedure, shortened: as §1

MST1 = molecular target: T14, MST1 (Homo sapiens, UniProt Q13043)
T14 construct: purchased Millipore, Inc. (KinaseProfiler service)
Procedure, shortened: as §1

Tie2 = molecular target: T15, Tie2 (Homo sapiens, UniProt Q02763)
T15 construct: purchased Millipore, Inc. (KinaseProfiler service)
Procedure, shortened: as §1

SGK3 = molecular target: T16, SGK3 (Homo sapiens, UniProt Q96BR1)
T16 construct: purchased Millipore, Inc. (KinaseProfiler service)
Procedure, shortened: as §1

TBK1 = molecular target: T17, TBK1 (Homo sapiens, UniProt Q9UHD2)
T17 construct: purchased Millipore, Inc. (KinaseProfiler service)
Procedure, shortened: as §1

Pim-1 = molecular target: T18, Pim-1 (Homo sapiens, UniProt P11309)
T18 construct: purchased Millipore, Inc. (KinaseProfiler service)
Procedure, shortened: as §1

CAMK1d = molecular target: T19, CAMK1d (Homo sapiens, UniProt Q8IU85)
T19 construct: purchased Millipore, Inc. (KinaseProfiler service)
Procedure, shortened: as §1

EphB3 = molecular target: T20, EphB3 (Homo sapiens, UniProt P54753)
T20 construct: purchased Millipore, Inc. (KinaseProfiler service)
Procedure, shortened: as §1

CDK2/cyclinA = molecular target: T21, CDK2/cyclinA (Homo sapiens, UniProt P24941)
T21 construct: purchased Millipore, Inc. (KinaseProfiler service)
Procedure, shortened: as §1

Haspin = molecular target: T22, Haspin (Homo sapiens, UniProt Q8TF76)
T22 construct: purchased Millipore, Inc. (KinaseProfiler service)
Procedure, shortened: as §1

NEK7 = molecular target: T23, NEK7 (Homo sapiens, UniProt Q8TDX7)
T23 construct: purchased Millipore, Inc. (KinaseProfiler service)
Procedure, shortened: as §1

Ros = molecular target: T24, Ros (Homo sapiens, UniProt P08922)
T24 construct: purchased Millipore, Inc. (KinaseProfiler service)
Procedure, shortened: as §1

AKT1 = molecular target: T25, AKT1 (Homo sapiens, UniProt P31749)
T25 construct: purchased Millipore, Inc. (KinaseProfiler service)
Procedure, shortened: as §1

Lck = molecular target: T26, Lck (Homo sapiens, UniProt P06239)
T26 construct: purchased Millipore, Inc. (KinaseProfiler service)
Procedure, shortened: as §1

PDGFRbeta = molecular target: T27, PDGFRbeta (Homo sapiens, UniProt P09619)
T27 construct: purchased Millipore, Inc. (KinaseProfiler service)
Procedure, shortened: as §1

DMPK = molecular target: T28, DMPK (Homo sapiens, UniProt Q09013)
T28 construct: purchased Millipore, Inc. (KinaseProfiler service)
Procedure, shortened: as §1

Mer = molecular target: T29, Mer (Homo sapiens, UniProt Q12866)
T29 construct: purchased Millipore, Inc. (KinaseProfiler service)
Procedure, shortened: as §1

TAO2 = molecular target: T30, TAO2 (Homo sapiens, UniProt Q9UL54)
T30 construct: purchased Millipore, Inc. (KinaseProfiler service)
Procedure, shortened: as §1

DYRK2 = molecular target: T31, DYRK2 (Homo sapiens, UniProt Q92630)
T31 construct: purchased Millipore, Inc. (KinaseProfiler service)
Procedure, shortened: as §1

Abl-P = molecular target: T32, Abl-P (Homo sapiens, UniProt P00519)
T32 construct: purchased Millipore, Inc. (KinaseProfiler service)
Procedure, shortened: as §1

DAPK3 = molecular target: T33, DAPK3 (Homo sapiens, UniProt O43293)
T33 construct: purchased Millipore, Inc. (KinaseProfiler service)
Procedure, shortened: as §1

MKK7beta = molecular target: T34, MKK7beta (Homo sapiens, UniProt O14733)
T34 construct: purchased Millipore, Inc. (KinaseProfiler service)
Procedure, shortened: as §1

PRKG1alpha = molecular target: T35, PRKG1alpha (Homo sapiens, UniProt Q13976)
T35 construct: purchased Millipore, Inc. (KinaseProfiler service)
Procedure, shortened: as §1

AKT2 = molecular target: T36, AKT2 (Homo sapiens, UniProt P31751)
T36 construct: purchased Millipore, Inc. (KinaseProfiler service)
Procedure, shortened: as §1

PRKG1beta = molecular target: T37, PRKG1beta (Homo sapiens, UniProt Q13976)
T37 construct: purchased Millipore, Inc. (KinaseProfiler service)
Procedure, shortened: as §1

PAK2 = molecular target: T38, PAK2 (Homo sapiens, UniProt Q13177)
T38 construct: purchased Millipore, Inc. (KinaseProfiler service)
Procedure, shortened: as §1

DAPK2 = molecular target: T39, DAPK2 (Homo sapiens, UniProt Q9UIK4)
T39 construct: purchased Millipore, Inc. (KinaseProfiler service)
Procedure, shortened: as §1

IGF-1R = molecular target: T40, IGF-1R (Homo sapiens, UniProt P08069)
T40 construct: purchased Millipore, Inc. (KinaseProfiler service)
Procedure, shortened: as §1

TNK2 = molecular target: T41, TNK2 (Homo sapiens, UniProt Q07912)
T41 construct: purchased Millipore, Inc. (KinaseProfiler service)
Procedure, shortened: as §1

T1 sequence (O96017 whole entry): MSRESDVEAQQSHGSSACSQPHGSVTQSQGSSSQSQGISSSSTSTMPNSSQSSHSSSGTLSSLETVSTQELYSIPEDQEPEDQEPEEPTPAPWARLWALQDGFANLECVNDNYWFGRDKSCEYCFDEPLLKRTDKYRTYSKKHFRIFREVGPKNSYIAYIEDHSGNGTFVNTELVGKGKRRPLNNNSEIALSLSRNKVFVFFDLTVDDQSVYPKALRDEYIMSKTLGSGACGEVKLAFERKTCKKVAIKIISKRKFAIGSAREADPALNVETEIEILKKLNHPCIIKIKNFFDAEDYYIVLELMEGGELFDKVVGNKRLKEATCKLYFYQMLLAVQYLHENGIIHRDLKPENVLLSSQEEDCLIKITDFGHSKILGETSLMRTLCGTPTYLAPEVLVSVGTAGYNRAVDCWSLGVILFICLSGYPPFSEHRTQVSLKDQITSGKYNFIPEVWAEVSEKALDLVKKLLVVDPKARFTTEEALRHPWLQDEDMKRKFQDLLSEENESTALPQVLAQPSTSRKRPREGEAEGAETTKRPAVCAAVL
T32 sequence (P00519 27-1130 limits assumed): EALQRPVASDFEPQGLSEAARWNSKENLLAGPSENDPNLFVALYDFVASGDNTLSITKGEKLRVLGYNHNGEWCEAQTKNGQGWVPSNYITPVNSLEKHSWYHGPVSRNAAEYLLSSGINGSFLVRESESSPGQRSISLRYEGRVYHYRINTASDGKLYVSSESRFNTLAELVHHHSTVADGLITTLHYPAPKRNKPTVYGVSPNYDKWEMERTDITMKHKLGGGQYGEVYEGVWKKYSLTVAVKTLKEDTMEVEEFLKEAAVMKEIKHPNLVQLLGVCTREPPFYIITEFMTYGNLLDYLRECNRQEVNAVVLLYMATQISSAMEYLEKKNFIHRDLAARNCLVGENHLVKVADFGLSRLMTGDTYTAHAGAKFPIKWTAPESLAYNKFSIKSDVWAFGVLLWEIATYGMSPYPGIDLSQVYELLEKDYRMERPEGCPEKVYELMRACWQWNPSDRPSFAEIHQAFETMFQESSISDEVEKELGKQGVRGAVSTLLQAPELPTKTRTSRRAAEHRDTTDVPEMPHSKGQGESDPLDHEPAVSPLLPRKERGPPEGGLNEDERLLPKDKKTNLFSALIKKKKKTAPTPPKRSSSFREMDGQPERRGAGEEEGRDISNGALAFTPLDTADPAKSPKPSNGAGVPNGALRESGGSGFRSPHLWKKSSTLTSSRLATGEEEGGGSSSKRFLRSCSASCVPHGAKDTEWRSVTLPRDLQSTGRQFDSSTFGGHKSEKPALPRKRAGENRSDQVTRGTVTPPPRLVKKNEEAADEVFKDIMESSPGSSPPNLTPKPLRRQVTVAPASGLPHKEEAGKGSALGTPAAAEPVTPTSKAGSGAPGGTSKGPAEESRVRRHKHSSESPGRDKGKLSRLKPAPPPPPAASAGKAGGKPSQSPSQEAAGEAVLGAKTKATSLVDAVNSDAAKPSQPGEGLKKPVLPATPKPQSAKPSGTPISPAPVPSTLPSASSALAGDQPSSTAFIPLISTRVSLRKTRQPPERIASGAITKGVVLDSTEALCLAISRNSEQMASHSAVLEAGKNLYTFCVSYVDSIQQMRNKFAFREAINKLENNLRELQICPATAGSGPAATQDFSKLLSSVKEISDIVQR
T7 sequence (P19784 whole entry): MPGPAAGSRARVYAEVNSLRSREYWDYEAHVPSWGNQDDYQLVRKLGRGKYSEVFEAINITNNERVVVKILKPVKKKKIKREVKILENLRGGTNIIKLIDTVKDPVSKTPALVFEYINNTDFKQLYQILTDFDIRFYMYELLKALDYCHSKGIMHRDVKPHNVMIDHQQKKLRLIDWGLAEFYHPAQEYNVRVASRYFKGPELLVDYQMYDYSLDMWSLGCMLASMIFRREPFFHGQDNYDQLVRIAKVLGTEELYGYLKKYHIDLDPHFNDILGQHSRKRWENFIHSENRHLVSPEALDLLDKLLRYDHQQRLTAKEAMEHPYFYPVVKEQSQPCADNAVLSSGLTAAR
T27 sequence (P09619 33-1106): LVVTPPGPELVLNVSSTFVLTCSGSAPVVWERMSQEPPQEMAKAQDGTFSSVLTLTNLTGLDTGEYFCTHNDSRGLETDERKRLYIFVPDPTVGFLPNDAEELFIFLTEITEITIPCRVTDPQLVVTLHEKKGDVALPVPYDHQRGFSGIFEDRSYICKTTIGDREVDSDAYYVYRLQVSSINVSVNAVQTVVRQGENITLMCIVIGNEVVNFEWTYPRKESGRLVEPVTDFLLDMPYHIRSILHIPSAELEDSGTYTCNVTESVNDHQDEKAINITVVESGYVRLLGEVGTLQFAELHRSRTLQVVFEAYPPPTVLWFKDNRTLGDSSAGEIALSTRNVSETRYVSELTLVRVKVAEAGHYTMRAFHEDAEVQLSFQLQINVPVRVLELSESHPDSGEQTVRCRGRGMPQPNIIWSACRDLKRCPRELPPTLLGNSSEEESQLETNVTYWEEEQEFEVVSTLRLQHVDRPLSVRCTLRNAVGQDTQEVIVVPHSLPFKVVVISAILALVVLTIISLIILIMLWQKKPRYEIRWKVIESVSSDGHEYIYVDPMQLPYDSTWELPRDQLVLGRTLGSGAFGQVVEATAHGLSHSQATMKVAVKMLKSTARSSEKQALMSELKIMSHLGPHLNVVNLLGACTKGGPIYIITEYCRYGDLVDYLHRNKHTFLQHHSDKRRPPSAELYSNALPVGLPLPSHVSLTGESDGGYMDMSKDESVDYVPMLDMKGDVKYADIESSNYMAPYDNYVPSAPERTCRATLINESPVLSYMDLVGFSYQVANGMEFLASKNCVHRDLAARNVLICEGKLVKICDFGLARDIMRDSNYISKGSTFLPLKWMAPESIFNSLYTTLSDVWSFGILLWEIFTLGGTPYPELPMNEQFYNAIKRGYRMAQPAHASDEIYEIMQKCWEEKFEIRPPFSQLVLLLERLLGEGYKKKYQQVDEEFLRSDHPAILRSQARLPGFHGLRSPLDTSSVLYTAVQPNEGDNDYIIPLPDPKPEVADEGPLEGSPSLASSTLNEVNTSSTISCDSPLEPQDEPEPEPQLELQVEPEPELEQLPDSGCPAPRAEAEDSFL
T29 sequence (Q12866 21-999): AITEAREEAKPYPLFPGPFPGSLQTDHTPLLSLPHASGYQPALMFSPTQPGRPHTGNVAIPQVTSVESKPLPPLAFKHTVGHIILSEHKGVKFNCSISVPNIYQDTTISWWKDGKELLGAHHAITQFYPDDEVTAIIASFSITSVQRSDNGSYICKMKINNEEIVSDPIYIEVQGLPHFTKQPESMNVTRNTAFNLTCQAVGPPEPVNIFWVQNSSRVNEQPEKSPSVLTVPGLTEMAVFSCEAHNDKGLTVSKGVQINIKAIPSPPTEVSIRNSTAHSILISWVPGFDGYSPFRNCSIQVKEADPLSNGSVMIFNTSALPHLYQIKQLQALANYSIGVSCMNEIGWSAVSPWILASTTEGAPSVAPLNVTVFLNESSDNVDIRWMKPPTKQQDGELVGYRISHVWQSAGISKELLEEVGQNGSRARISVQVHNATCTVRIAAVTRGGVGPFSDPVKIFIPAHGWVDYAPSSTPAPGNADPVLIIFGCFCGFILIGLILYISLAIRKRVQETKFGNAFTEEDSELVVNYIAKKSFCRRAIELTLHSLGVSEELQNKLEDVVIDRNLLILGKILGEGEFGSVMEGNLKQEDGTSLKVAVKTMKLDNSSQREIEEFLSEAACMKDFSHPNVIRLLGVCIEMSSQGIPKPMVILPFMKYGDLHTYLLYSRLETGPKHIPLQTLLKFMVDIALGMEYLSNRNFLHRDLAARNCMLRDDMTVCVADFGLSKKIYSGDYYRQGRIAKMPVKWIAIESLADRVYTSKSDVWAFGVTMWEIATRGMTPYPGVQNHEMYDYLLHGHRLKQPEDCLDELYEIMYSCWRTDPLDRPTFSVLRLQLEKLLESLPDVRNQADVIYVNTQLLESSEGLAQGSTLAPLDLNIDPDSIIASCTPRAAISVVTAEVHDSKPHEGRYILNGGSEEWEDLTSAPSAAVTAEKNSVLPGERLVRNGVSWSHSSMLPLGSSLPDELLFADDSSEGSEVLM
T19 sequence (Q8IU85 whole entry): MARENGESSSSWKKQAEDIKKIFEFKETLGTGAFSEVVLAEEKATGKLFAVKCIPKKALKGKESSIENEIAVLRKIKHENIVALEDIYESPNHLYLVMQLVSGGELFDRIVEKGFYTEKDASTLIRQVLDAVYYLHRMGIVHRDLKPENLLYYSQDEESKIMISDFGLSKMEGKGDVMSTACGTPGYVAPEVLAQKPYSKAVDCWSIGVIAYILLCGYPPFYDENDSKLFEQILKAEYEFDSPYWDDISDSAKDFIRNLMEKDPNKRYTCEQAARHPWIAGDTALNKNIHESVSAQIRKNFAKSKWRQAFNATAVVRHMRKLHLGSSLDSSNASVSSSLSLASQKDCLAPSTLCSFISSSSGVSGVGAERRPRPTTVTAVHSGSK
T36 sequence (P31751 whole entry): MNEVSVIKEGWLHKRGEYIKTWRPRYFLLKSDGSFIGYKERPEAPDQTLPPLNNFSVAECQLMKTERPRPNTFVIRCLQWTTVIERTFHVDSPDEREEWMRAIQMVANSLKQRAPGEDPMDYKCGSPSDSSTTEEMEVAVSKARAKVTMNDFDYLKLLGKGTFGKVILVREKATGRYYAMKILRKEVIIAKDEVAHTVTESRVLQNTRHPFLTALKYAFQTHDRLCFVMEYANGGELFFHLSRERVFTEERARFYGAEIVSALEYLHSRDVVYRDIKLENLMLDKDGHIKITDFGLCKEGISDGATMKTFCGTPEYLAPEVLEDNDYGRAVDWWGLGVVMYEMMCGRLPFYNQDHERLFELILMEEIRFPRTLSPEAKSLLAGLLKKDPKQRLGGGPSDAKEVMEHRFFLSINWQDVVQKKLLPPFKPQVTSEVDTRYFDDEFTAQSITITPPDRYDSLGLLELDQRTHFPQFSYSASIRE

- Avg POC (CHK2): 107.5% of control
- Avg POC (PKCdelta): 119.5% of control
- Avg POC (EphA4): 105.5% of control
- Avg POC (ULK3): 100% of control
- Avg POC (CLK2): 116% of control
- Avg POC (AMPK (A1/B1/G1)): 114.5% of control
- Avg POC (CK2alpha2): 113% of control
- Avg POC (PKCbetaI): 97% of control
- Avg POC (Fms): 96% of control
- Avg POC (ZAP-70): 100.5% of control
- Avg POC (BrSK2): 119.5% of control
- Avg POC (CAMK2b): 90% of control
- Avg POC (MAPKAP-K3): 75.5% of control
- Avg POC (MST1): 93.5% of control
- Avg POC (Tie2): 96% of control
- Avg POC (SGK3): 82% of control
- Avg POC (TBK1): 96.5% of control
- Avg POC (Pim-1): 134% of control
- Avg POC (CAMK1d): 105% of control
- Avg POC (EphB3): 119% of control
- Avg POC (CDK2/cyclinA): 110% of control
- Avg POC (Haspin): 117% of control
- Avg POC (NEK7): 107% of control
- Avg POC (Ros): 111% of control
- Avg POC (AKT1): 117% of control
- Avg POC (Lck): 102% of control
- Avg POC (PDGFRbeta): 103.5% of control
- Avg POC (DMPK): 106% of control
- Avg POC (Mer): 126.5% of control
- Avg POC (TAO2): 100.5% of control
- Avg POC (DYRK2): 103.5% of control
- Avg POC (Abl-P): 147.5% of control
- Avg POC (DAPK3): 91% of control
- Avg POC (MKK7beta): 98% of control
- Avg POC (PRKG1alpha): 106% of control
- Avg POC (AKT2): 148% of control
- Avg POC (PRKG1beta): 105% of control
- Avg POC (PAK2): 101.5% of control
- Avg POC (DAPK2): 99% of control
- Avg POC (IGF-1R): 85.5% of control
- Avg POC (TNK2): 99.5% of control
Compound: COCCN1C[C@@H](NC(=O)Nc2sc(C(C)C)nc2-c2ccccc2)[C@H](c2ccccc2)C1 [Example 48, 1-(2-isopropyl-4-phenylthiazol-5-yl)-3-((3S,4R)-1-(2-methoxyethyl)-4-phenylpyrrolidin-3-yl)urea]
